Measured values from patent US20240238242A1, “EGCG buccal tablet and use thereof” (priority 2023, published 2024).
Read-outs that look alike come from different tables or passages of the source.

System: Influenza A H3N2 virus (H3N2)
Type: cell-based

O=C(O[C@@H]1Cc2c(O)cc(O)cc2O[C@@H]1c1cc(O)c(O)c(O)c1)c1cc(O)c(O)c(O)c1 [EGCG, Epigallocatechin gallate]
84.15%: inactivation efficiency against the virus (0.2 mM EGCG, H3N2 virus, 5 minutes, single experiment)
−: CPE test, virus replication in cell wells (wells 1-10) (0.2 mM EGCG + H3N2 virus, 1 minute, first experiment, dilution factor 10^6) | CPE test, virus replication in cell wells (wells 1-10) (0.2 mM EGCG + H3N2 virus, 1 minute, first experiment, dilution factor 10^7) | CPE test, virus replication in cell wells (wells 1-10) (0.2 mM EGCG + H3N2 virus, 1 minute, first experiment, dilution factor 10^8) | CPE test, virus replication in cell wells (wells 1-10) (0.2 mM EGCG + H3N2 virus, 1 minute, second experiment, dilution factor 10^6) | CPE test, virus replication in cell wells (wells 1-10) (0.2 mM EGCG + H3N2 virus, 1 minute, second experiment, dilution factor 10^7) | CPE test, virus replication in cell wells (wells 1-10) (0.2 mM EGCG + H3N2 virus, 1 minute, second experiment, dilution factor 10^8) | CPE test, virus replication in cell wells 1-10 (0.2 mM EGCG + H3N2 virus, 1 minute, third experiment, dilution factor 10^6) | CPE test, virus replication in cell wells 1-10 (0.2 mM EGCG + H3N2 virus, 1 minute, third experiment, dilution factor 10^7) | CPE test, virus replication in cell wells 1-10 (0.2 mM EGCG + H3N2 virus, 1 minute, third experiment, dilution factor 10^8) | CPE test, virus replication in cell wells 1-10 (0.2 mM EGCG + H3N2 virus, 5 minute, first experiment, dilution factor 10^6) | CPE test, virus replication in cell wells 1-10 (0.2 mM EGCG + H3N2 virus, 5 minute, first experiment, dilution factor 10^7) | CPE test, virus replication in cell wells 1-10 (0.2 mM EGCG + H3N2 virus, 5 minute, first experiment, dilution factor 10^8) | CPE test, virus replication in cell wells 1-10 (0.2 mM EGCG + H3N2 virus, 5 minute, second experiment, dilution factor 10^6) | CPE test, virus replication in cell wells 1-10 (0.2 mM EGCG + H3N2 virus, 5 minute, second experiment, dilution factor 10^7) | CPE test, virus replication in cell wells 1-10 (0.2 mM EGCG + H3N2 virus, 5 minute, second experiment, dilution factor 10^8) | CPE test, virus replication in cell wells (wells 1-10) (1 mM EGCG + H3N2 virus, 1 minute, first experiment, dilution factor 10^6) | CPE test, virus replication in cell wells (wells 1-10) (1 mM EGCG + H3N2 virus, 1 minute, first experiment, dilution factor 10^7) | CPE test, virus replication in cell wells (wells 1-10) (1 mM EGCG + H3N2 virus, 1 minute, first experiment, dilution factor 10^8) | CPE test, virus replication in cell wells (wells 1-10) (1 mM EGCG + H3N2 virus, 1 minute, second experiment, dilution factor 10^6) | CPE test, virus replication in cell wells (wells 1-10) (1 mM EGCG + H3N2 virus, 1 minute, second experiment, dilution factor 10^7) | CPE test, virus replication in cell wells (wells 1-10) (1 mM EGCG + H3N2 virus, 1 minute, second experiment, dilution factor 10^8)
− and +: CPE test, virus replication in cell wells 1-10 (0.2 mM EGCG + H3N2 virus, 5 minute, second experiment, dilution factor 10^5)
10^5 TCID50/50 μL: residual virus titer of EGCG+virus group (Karber method) (0.2 mM EGCG, H3N2 virus, 1 minute)
28.93%: average inactivation efficiency against virus (0.2 mM EGCG, H3N2 virus, 1 minute, three experiments)
+: CPE test, virus replication in cell wells (wells 1-10) (0.2 mM EGCG + H3N2 virus, 1 minute, first experiment, dilution factor 10^1) | CPE test, virus replication in cell wells (wells 1-10) (0.2 mM EGCG + H3N2 virus, 1 minute, first experiment, dilution factor 10^2) | CPE test, virus replication in cell wells (wells 1-10) (0.2 mM EGCG + H3N2 virus, 1 minute, first experiment, dilution factor 10^3) | CPE test, virus replication in cell wells (wells 1-10) (0.2 mM EGCG + H3N2 virus, 1 minute, first experiment, dilution factor 10^4) | CPE test, virus replication in cell wells (wells 1-10) (0.2 mM EGCG + H3N2 virus, 1 minute, second experiment, dilution factor 10^1) | CPE test, virus replication in cell wells (wells 1-10) (0.2 mM EGCG + H3N2 virus, 1 minute, second experiment, dilution factor 10^2) | CPE test, virus replication in cell wells (wells 1-10) (0.2 mM EGCG + H3N2 virus, 1 minute, second experiment, dilution factor 10^3) | CPE test, virus replication in cell wells (wells 1-10) (0.2 mM EGCG + H3N2 virus, 1 minute, second experiment, dilution factor 10^4) | CPE test, virus replication in cell wells 1-10 (0.2 mM EGCG + H3N2 virus, 1 minute, third experiment, dilution factor 10^1) | CPE test, virus replication in cell wells 1-10 (0.2 mM EGCG + H3N2 virus, 1 minute, third experiment, dilution factor 10^2) | CPE test, virus replication in cell wells 1-10 (0.2 mM EGCG + H3N2 virus, 1 minute, third experiment, dilution factor 10^3) | CPE test, virus replication in cell wells 1-10 (0.2 mM EGCG + H3N2 virus, 1 minute, third experiment, dilution factor 10^4) | CPE test, virus replication in cell wells 1-10 (0.2 mM EGCG + H3N2 virus, 5 minute, first experiment, dilution factor 10^1) | CPE test, virus replication in cell wells 1-10 (0.2 mM EGCG + H3N2 virus, 5 minute, first experiment, dilution factor 10^2) | CPE test, virus replication in cell wells 1-10 (0.2 mM EGCG + H3N2 virus, 5 minute, first experiment, dilution factor 10^3) | CPE test, virus replication in cell wells 1-10 (0.2 mM EGCG + H3N2 virus, 5 minute, first experiment, dilution factor 10^4) | CPE test, virus replication in cell wells 1-10 (0.2 mM EGCG + H3N2 virus, 5 minute, second experiment, dilution factor 10^1) | CPE test, virus replication in cell wells 1-10 (0.2 mM EGCG + H3N2 virus, 5 minute, second experiment, dilution factor 10^2) | CPE test, virus replication in cell wells 1-10 (0.2 mM EGCG + H3N2 virus, 5 minute, second experiment, dilution factor 10^3) | CPE test, virus replication in cell wells 1-10 (0.2 mM EGCG + H3N2 virus, 5 minute, second experiment, dilution factor 10^4) | CPE test, virus replication in cell wells (wells 1-10) (1 mM EGCG + H3N2 virus, 1 minute, first experiment, dilution factor 10^2) | CPE test, virus replication in cell wells (wells 1-10) (1 mM EGCG + H3N2 virus, 1 minute, first experiment, dilution factor 10^3) | CPE test, virus replication in cell wells (wells 1-10) (1 mM EGCG + H3N2 virus, 1 minute, first experiment, dilution factor 10^4) | CPE test, virus replication in cell wells (wells 1-10) (1 mM EGCG + H3N2 virus, 1 minute, second experiment, dilution factor 10^1) | CPE test, virus replication in cell wells (wells 1-10) (1 mM EGCG + H3N2 virus, 1 minute, second experiment, dilution factor 10^2) | CPE test, virus replication in cell wells (wells 1-10) (1 mM EGCG + H3N2 virus, 1 minute, second experiment, dilution factor 10^3) | CPE test, virus replication in cell wells 1-10 (1 mM EGCG + H3N2 virus, 1 minute, third experiment, dilution factor 10^2) | CPE test, virus replication in cell wells 1-10 (1 mM EGCG + H3N2 virus, 1 minute, third experiment, dilution factor 10^3) | CPE test, virus replication in cell wells 1-10 (1 mM EGCG + H3N2 virus, 1 minute, third experiment, dilution factor 10^4)
76.27%: average inactivation efficiency against virus (0.2 mM EGCG, H3N2 virus, 5 minutes, two experiments)
+ and −: CPE test, virus replication in cell wells (wells 1-10) (0.2 mM EGCG + H3N2 virus, 1 minute, first experiment, dilution factor 10^5) | CPE test, virus replication in cell wells (wells 1-10) (0.2 mM EGCG + H3N2 virus, 1 minute, second experiment, dilution factor 10^5) | CPE test, virus replication in cell wells 1-10 (0.2 mM EGCG + H3N2 virus, 1 minute, third experiment, dilution factor 10^5) | CPE test, virus replication in cell wells 1-10 (0.2 mM EGCG + H3N2 virus, 5 minute, first experiment, dilution factor 10^5) | CPE test, virus replication in cell wells (wells 1-10) (1 mM EGCG + H3N2 virus, 1 minute, first experiment, dilution factor 10^5) | CPE test, virus replication in cell wells (wells 1-10) (1 mM EGCG + H3N2 virus, 1 minute, second experiment, dilution factor 10^4) | CPE test, virus replication in cell wells (wells 1-10) (1 mM EGCG + H3N2 virus, 1 minute, second experiment, dilution factor 10^5)
